Patent US20100183629A1, “ANTAGONISTS OF ENDOTHELIAL DIFFERENTIATION GENE SUBFAMILY 3 (EDG-3, S1P3) RECEPTORS FOR PREVENTION AND TREATMENT OF OCULAR DISORDERS” (ALCON RESEARCH, LTD., priority 2006, published 2010)

Biological target: T1, Edg3 receptor (Homo sapiens, UniProt Q99500)
T1 construct: endogenous in cells; host or cells: cultured human trabecular meshwork (TM) cells
Test: PAI-1 levels (ELISA) in supernatants of treated human TM cell cultures, Edg3 receptor antagonism
Format: cell-based
Conditions: human trabecular meshwork cell cultures, 24 hours
Method: FIG. 2A and FIG. 2B. Human trabecular meshwork cell cultures were treated with (open circles) or without (closed circles) the Edg3 receptor subtype antagonist CAY10444 in the presence of various amounts of the endogenous Edg receptor agonist S1P (FIG. 2A) or in the presence of various amounts of FTY720, a structural analog of SIP (FIG. 2B). Twenty-four hours later, the levels of the secreted PAI-1 protein were then determined by ELISA of supernatant aliquots from the treated cultures as cited in Example 2.
The effect of Edg3 receptor antagonism on expression of extracellular matrix-related proteins by cultured human trabecular meshwork cells is determined as follows. […] Levels of extracellular matrix-related proteins, such as fibronectin, plasminogen activator inhibitor I (PAI-1), collagens, fibrillin, vitronectin, laminin, thrombospondin I, proteoglycans, or integrins, are then measured in each cell culture group via standard enzyme-linked immunoabsorbent assays (ELISA). […]
An example of the effect of Edg3 receptor antagonism on PAI-1 levels in supernatants from treated human TM cell cultures is shown in FIG. 2A and FIG. 2B. […] Twenty-four hours later, the levels of the secreted PAI-1 protein were then determined by ELISA of supernatant aliquots from the treated cultures.

T1 sequence (Q99500 whole entry): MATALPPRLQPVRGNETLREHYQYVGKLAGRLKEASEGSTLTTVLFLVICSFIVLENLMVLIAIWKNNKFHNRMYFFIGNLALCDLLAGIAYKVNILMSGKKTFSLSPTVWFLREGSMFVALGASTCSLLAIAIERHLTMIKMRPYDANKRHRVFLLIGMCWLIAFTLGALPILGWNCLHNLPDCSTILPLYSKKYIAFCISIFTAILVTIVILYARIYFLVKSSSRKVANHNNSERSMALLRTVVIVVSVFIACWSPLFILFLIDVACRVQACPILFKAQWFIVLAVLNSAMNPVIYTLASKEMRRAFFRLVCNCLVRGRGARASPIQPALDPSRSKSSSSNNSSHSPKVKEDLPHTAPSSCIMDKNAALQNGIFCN

CCCCCCCCCCCC1N[C@H](C(=O)O)CS1 (some centres unmarked) [CAY10444]
antagonism of FTY720 effect on secreted PAI-1 protein level (various amounts of FTY720, ELISA of supernatant (FIG. 2B)): potently and efficaciously antagonized
antagonism of S1P effect on secreted PAI-1 protein level (various amounts of S1P, ELISA of supernatant (FIG. 2A)): potently and efficaciously antagonized
